The target in the assay is T1, human β3 receptors (Homo sapiens, UniProt P13945).
T1 construct: Full length β3 AR clones (402 amino acids) containing the last 6 amino acids of hβ3—AR; expressed in transfected cells; host or cells: CHO cells
Nature of the assay: cAMP response (SPA) in CHO cells expressing cloned human β3 adrenergic receptor. It is filed as cell-based. Conditions: for EC50: CHO cells expressing human β3 receptor, cAMP, 30 min incubation, 10^−9 M to 10^−5 M; for IA(β3): maximal response compared to the maximal response of isoproterenol at 10^−5 M. The procedure:
Binding to the receptors was measured in Chinese Hamster ovary (CHO) cells that were transfected with adrenergic receptors.
Cloning of Human β3-AR Genomic DNA: cDNA was constructed by ligating four polymerase chain reaction (PCR) products using the following primers: an ATG-NarI fragment, sense primer 5′-[…]3′ and anti-sense primer 5′ […]3′; a NarI-AccI fragment, 5′ […]3′ as sense and 5′ […]3′ as anti-sense primer; an AccIi-StyI fragment, sense primer 5′ […]3′ and anti-sense primer 5′ […]3′ and a StyI-TAG fragment, with sense primer 5′ […]3′ and anti-sense primer 5′ […]3′. The corresponding primer sequences are described in Mantzoros, C. […] The four fragments are ligated into a pUC 18 plasmid (Gibco-BRL) and sequenced.
CHO cells were grown in 24-well tissue culture plates in Dulbecco's Modified Eagle Media with 10% fetal bovine serum, MEM non-essential amino acids, Penicillin-Streptompycin and Geneticin. […] Isoproterenol (10^−5 M) was used as an internal standard for comparison of activity. Cells were incubated at 37° C. on a rocker for 30 min with the β3 cells and 15 min for β1 and β2 cells. Incubation was stopped with the addition of 0.2N HCl and neutralized with 2.5N NaOH. The plates, containing the cells and neutralized media, were stored at −20 degrees celsius until ready to test for cAMP using the SPA test kit (Amersham).
Data Analysis and Results: Data collected from the SPA test procedure were analyzed as per cent of the maximal isoproterenol response at 10^−5 M. Activity curves were plotted using the SAS statistical and graphics software.

Structures are written as SMILES.

T1 sequence (P13945 whole entry): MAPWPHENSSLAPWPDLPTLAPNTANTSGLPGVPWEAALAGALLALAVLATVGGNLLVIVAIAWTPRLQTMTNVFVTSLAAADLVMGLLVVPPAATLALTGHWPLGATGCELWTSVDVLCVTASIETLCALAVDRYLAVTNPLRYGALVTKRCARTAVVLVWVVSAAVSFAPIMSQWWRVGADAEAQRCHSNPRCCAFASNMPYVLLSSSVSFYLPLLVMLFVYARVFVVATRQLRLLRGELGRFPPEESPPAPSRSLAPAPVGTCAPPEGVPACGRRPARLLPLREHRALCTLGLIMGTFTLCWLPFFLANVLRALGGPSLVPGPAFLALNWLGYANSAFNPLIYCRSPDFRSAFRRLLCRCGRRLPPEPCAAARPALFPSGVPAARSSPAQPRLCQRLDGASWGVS

Turning to `CS(=O)(=O)Nc1cc([C@@H](O)CNCC2CCN(S(=O)(=O)c3ccc(NC(=O)NCCc4cc(F)ccc4F)cc3)CC2)ccc1O` [Example 81, N-{5-[(1R)-2-({[1-({4-[({[2-(2,5-difluorophenyl)ethyl]amino]-carbonyl)amino}-phenyl}sulfonyl)piperidin-4-yl]methyl}amino)-1-hydroxyethyl]-2-hydroxyphenyl}-methanesulfonamide], the EC50 (in general, the midpoint of the concentration-response curve) was 0.005 µM and the “IA(β3)” value came out at 1.1.

Take `O=C(Nc1ccc(S(=O)(=O)N2CCC(CNC[C@H](O)COc3ccc(O)cc3)CC2)cc1)Nc1c(F)cccc1F` [Example 83]: the midpoint of the response, the EC50, lay at 0.112 µM and the “IA(β3)” value came to 1.2.

Regarding `CC(C)N(Cc1c(F)cccc1F)C(=O)Nc1ccc(S(=O)(=O)N2CCC(CNC[C@H](O)c3ccc(O)c(NS(C)(=O)=O)c3)CC2)cc1` [Example 84, N-(5-{(1R)-2-[(1-{4-[3-(2,6-Difluoro-benzyl)-3-isopropyl-ureido]-benzenesulfonyl}-piperidin-4-ylmethyl)-amino]-1-hydroxy-ethyl}-2-hydroxy-phenyl)-methane-sulfonamide], a half-maximal response (EC50) required 0.027 µM and the “IA(β3)” value is recorded as 0.93.

On to `CN(Cc1c(F)cccc1F)C(=O)Nc1ccc(S(=O)(=O)N2CCC(CNC[C@H](O)c3ccc(O)c(NS(C)(=O)=O)c3)CC2)cc1` [Example 85, N-(5-{2-[(1-{4-[3-(2,6-Difluoro-benzyl)-3-methyl-ureido]-benzenesulfonyl}-piperidin-4-ylmethyl)-amino]-1-hydroxy-ethyl}-2-hydroxy-phenyl)-methanesulfonamide], for which the concentration for a half-maximal effect (EC50) was 0.029 µM and the “IA(β3)” value is on record as 1.2.

Regarding `CC(C)N(Cc1cc(F)ccc1F)C(=O)Nc1ccc(S(=O)(=O)N2CCC(CNC[C@H](O)c3ccc(O)c(NS(C)(=O)=O)c3)CC2)cc1` [Example 86], a half-maximal response (EC50) required 0.003 µM and the “IA(β3)” value is listed as 0.78.

Turning to `CN(Cc1cc(F)ccc1F)C(=O)Nc1ccc(S(=O)(=O)N2CCC(CNC[C@H](O)c3ccc(O)c(NS(C)(=O)=O)c3)CC2)cc1` [Example 87, N-[5-[(R)-2-[[[1-[[4-[[[[(2,5-Difluorophenyl)methyl]-methylamino]-carbonyl]amino]-phenyl]sulfonyl]-4-piperidinyl]methyl]amino]-1-hydroxyethyl]-2-hydroxyphenyl]-methanesulfonamide], a half-maximal effect (EC50) was put at 0.007 µM and the “IA(β3)” value amounted to 1.

Regarding `COC(=O)COc1ccc(CNC(=O)Nc2ccc(S(=O)(=O)N3CCC(CNC[C@H](O)c4ccc(O)c(NS(C)(=O)=O)c4)CC3)cc2)c(F)c1` [Example 88, [3-Fluoro-4-[[[[[4-[[4-[[[(R)-2-hydroxy-2-[4-hydroxy-3-[(methylsulfonyl)amino]-phenyl]ethyl]amino]-methyl]-1-piperidinyl]sulfonyl]phenyl]amino]-carbonyl]-amino]methyl]phenoxy]acetic Acid, Methyl Ester], a half-maximal response (EC50) required 0.022 µM and the “IA(β3)” value is reported as 1.

`CS(=O)(=O)Nc1cc([C@@H](O)CNCC2CCN(S(=O)(=O)c3ccc(NC(=O)NCc4ccc(OCC(=O)O)cc4F)cc3)CC2)ccc1O` [Example 89, [3-Fluoro-4-[[[[[4-[[4-[[[(R)-2-hydroxy-2-[4-hydroxy-3-[(methylsulfonyl)amino]phenyl]-ethy]amino]-methyl]-1-piperidinyl]sulfonyl]phenyl]amino]carbonyl]-amino]-methyl]phenoxy]acetic Acid]: the EC50 came out at 0.035 µM.

Consider `CCCCCCC(=O)Nc1ccc(S(=O)(=O)N2CCC(CNC[C@H](O)COc3ccc(O)cc3)CC2)cc1` [Example 90, Heptanoic Acid [4-(4-{[(2S)-2-Hydroxy-3-(4-hydroxy-phenoxy)-propylamino]-methyl}-piperidine-1-sulfonyl)-phenyl]-amide], for which the midpoint of the response, the EC50, lay at 0.269 µM and the “IA(β3)” value turned out to be 0.91.

For the molecule `O=C(NCc1c(F)cccc1F)c1ccc(S(=O)(=O)N2CCC(CNC[C@H](O)COc3ccc(O)cc3)CC2)cc1` [Example 91, N-(2,6-Difluoro-benzyl)-4-(4-{[(2S)-2-hydroxy-3-(4-hydroxy-phenoxy)-propylamino]-methyl}-piperidine-1-sulfonyl)-benzamide], the EC50 came out at 0.11 µM and the “IA(β3)” value was found to be 0.72.

In the case of `O=C(Nc1ccc(S(=O)(=O)N2CCC(CNC[C@H](O)COc3ccc(O)cc3)CC2)cc1)c1n[nH]c2ccccc12` [Example 92, 1H-Indazole-3-carboxylic Acid [4-(4-{[(2S)-2-Hydroxy-3-(4-hydroxy-phenoxy)-propylamino]-methyl}-piperidine-1-sulfonyl)-phenyl]-amide], the response was half-maximal at 0.16 µM (EC50) and the “IA(β3)” value is 0.82.

With `CN1CCN(c2ccc(S(=O)(=O)N3CCC(CNC[C@H](O)COc4ccc(O)cc4)CC3)cc2)C1=O` [Example 94, 1-[4-(4-{[2-Hydroxy-3-(4-hydroxy-phenoxy)-propylamino]-methyl}-piperidine-1-sulfonyl)-phenyl]-3-methyl-imidazolidin-2-one], a half-maximal effect (EC50) was put at 0.51 µM and the “IA(β3)” value turned out to be 0.76.

Regarding `CCOC(=O)c1cc2ccccc2n1-c1ccc(S(=O)(=O)N2CCC(CNC[C@H](O)c3ccc(O)c(NS(C)(=O)=O)c3)CC2)cc1` [Example 95, 1-[4-(4-{[(2R)-2-Hydroxy-2-(4-hydroxy-3-methanesulfonylamino-phenyl)-ethyl-amino]-methyl}-piperidine-1-sulfonyl)-phenyl]-1H-indole-2-carboxalic Acid Ethyl Ester], a half-maximal response (EC50) required 0.125 µM and the “IA(β3)” value is 0.82.

Take `CCOC(=O)Cc1cn(-c2ccc(S(=O)(=O)N3CCC(CNC[C@H](O)c4ccc(O)c(NS(C)(=O)=O)c4)CC3)cc2)c2ccccc12` [Example 96, {1-[4-(4-{[(2R)-2-Hydroxy-2-(4-hydroxy-3-methanesulfonylamino-phenyl)-ethylamino]-methyl}-piperidine-1-sulfonyl)-phenyl]-1H-indol-3-yl}-acetic Acid Ethyl Ester]: the concentration giving a half-maximal response (EC50) was 0.013 µM and the “IA(β3)” value turned out to be 0.85.

With `CS(=O)(=O)Nc1cc([C@@H](O)CNCC2CCN(S(=O)(=O)c3ccc(-n4cc(CC(=O)O)c5ccccc54)cc3)CC2)ccc1O` [Example 97, {1-[4-(4-{[(2R)-2-Hydroxy-2-(4-hydroxy-3-methanesulfonylamino-phenyl)-ethylamino]-methyl}-piperidine-1-sulfonyl)-phenyl]-1H-indol-3-yl}-acetic Acid], a half-maximal response (EC50) required 0.011 µM and the “IA(β3)” value was found to be 0.96.

Take `COC(=O)c1cccc2c1ccn2-c1ccc(S(=O)(=O)N2CCC(CNC[C@H](O)c3ccc(O)c(NS(C)(=O)=O)c3)CC2)cc1` [Example 98, 1-[4-(4-{[(2R)-2-Hydroxy-2-(4-hydroxy-3-methanesulfonylamino-phenyl)-ethyl-amino]-methyl}-piperidine-1-sulfonyl)-phenyl]-1H-indole-4-carboxylic Acid Methyl Ester]: the EC50 is 0.025 µM and the “IA(β3)” value is on record as 1.

As for `CS(=O)(=O)Nc1cc([C@@H](O)CNCC2CCN(S(=O)(=O)c3ccc(-n4ccc5c(C(=O)O)cccc54)cc3)CC2)ccc1O` [Example 99, 1-[4-(4-{[(2R)-2-Hydroxy-2-(4-hydroxy-3-methanesulfonylamino-phenyl)-ethylamino]-methyl}-piperidine-1-sulfonyl)-phenyl]-1H-indole-4-carboxylic Acid], the EC50 was found to be 0.009 µM and the “IA(β3)” value turned out to be 1.

`CCOC(=O)c1cnn(-c2ccc(S(=O)(=O)N3CCC(CNC[C@H](O)c4ccc(O)c(NS(C)(=O)=O)c4)CC3)cc2)c1` [Example 100, Ethyl 1-{4-[(4-{[((2R)-2-Hydroxy-2-{4-hydroxy-3-[(methylsulfonyl)amino]-phenyl}ethyl)amino]methyl}piperidin-1-yl)sulfonyl]phenyl}-1H-pyrazole-4-carboxylate]: the EC50 was 0.041 µM and the “IA(β3)” value turned out to be 1.

`CS(=O)(=O)Nc1cc([C@@H](O)CNCC2CCN(S(=O)(=O)c3ccc(-n4cc(C(=O)O)cn4)cc3)CC2)ccc1O` [Example 101, 1-{4-[(4-{[((2R)-2-Hydroxy-2-{4-hydroxy-3-[(methylsulfonyl)amino]-phenyl}ethyl)amino]methyl}piperidin-1-yl)sulfonyl]phenyl}-1H-pyrazole-4-carboxylic Acid]: a half-maximal effect (EC50) was put at 0.043 µM and the “IA(β3)” value is 0.93.

Regarding `COC(=O)CCc1nc(-c2ccc(S(=O)(=O)N3CCC(CNC[C@H](O)c4ccc(O)c(NS(C)(=O)=O)c4)CC3)cc2)no1` [Example 104, 3-{3-[4-(4-{[(2R)-2-Hydroxy-2-(4-hydroxy-3-methanesulfonylamino-phenyl)-ethylamino]-methyl}-piperidine-1-sulfonyl)-phenyl]-[1,2,4]oxadiazol-5-yl}-propionic Acid Methyl Ester], the EC50 amounted to 0.008 µM and the “IA(β3)” value worked out at 1.

The values above are taken from US6506901B2, “Substituted 2-(S)-hydroxy-3-(piperidin-4-yl-methylamino)-propyl ethers and substituted 2-aryl-2-(R)-hydroxy-1-(piperidin-4-yl-methyl)-ethylamine β-3 adrenergic receptor agonists” (Wyeth, priority 2000, dated 2003).
